According to patent US11331299B2, “Medicinal use of serrulatane diterpenes” (The University of Sydney, priority 2016, dated 2022):
Read-outs that look alike come from different tables or passages of the source.

Tested on: 280 human cancer cell lines
Experiment: OncoPanel cell proliferation assay (10-day)
Format: cell-based
Conditions: Homo sapiens; for EC50: read-out: Cell Count EC50; for GI50: read-out: Cell Count GI50; for IC50: read-out: Cell Count IC50
[1] = C-4-II, C-4 II, Female GU - Cervix
[2] = C-33-A, C-33A, Female GU - Cervix
[3] = CAL-62, CAL-62, Endocrine - Thyroid
[4] = CCF-STTG1, CCF-STTG1, CNS - Glioma
[5] = CGTH-W-1, CGTH-W-1, Endocrine - Thyroid
[6] = CHP-212, CHP-212, CNS - Neuroblastoma
[7] = COLO-320-HSR, Colo 320 HSR, Colon
[8] = COLO-829, COLO 829, Skin (Melanoma)
[9] = COR-L105, COR-L105, Lung - NSCLC
[10] = Ca-Ski, Ca Ski, Female GU - Ovary

`CC(C)=CCC[C@H](CO)[C@@H]1CC[C@@H](C)c2c1cc(C)c(O)c2O` [Compound 1, 7,8,18-trihydroxyserrulat-14-ene] showed an EC50 (BT-474, BT474, Breast) of 5.41 µM, a GI50 (BT-474, BT474, Breast) of 4.95 µM and an IC50 (BT-474, BT474, Breast) of 5.46 µM. The EC50 (BT-549, BT-549, Breast) was 3.14 µM, the GI50 (BT-549, BT-549, Breast) was 3.12 µM and the IC50 (BT-549, BT-549, Breast) was 3.14 µM. The EC50 (BV-173, BV-173, Leukemia) was 3.8 µM, the GI50 (BV-173, BV-173, Leukemia) was 3.79 µM and the IC50 (BV-173, BV-173, Leukemia) was 3.8 µM. For the same compound, the EC50 (BXPC-3, BxPC-3, Pancreas) was 3.29 µM, the GI50 (BXPC-3, BxPC-3, Pancreas) was 3.29 µM and the IC50 (BXPC-3, BxPC-3, Pancreas) was 3.3 µM. It also gave an EC50 (BeWo, Placenta) of 9.06 µM, a GI50 (BeWo, Placenta) of 8.92 µM and an IC50 (BeWo, Placenta) of 9.06 µM. For the same compound, the EC50 (C32, Skin (Melanoma)) was 2.11 µM, the GI50 (C32, Skin (Melanoma)) was 1.81 µM and the IC50 (C32, Skin (Melanoma)) was 2.11 µM. The EC50 [1] was 1.09 µM, the GI50 [1] was 1.09 µM and the IC50 [1] was 1.1 µM. It also gave an EC50 [2] of 7.18 µM, a GI50 [2] of 7.08 µM and an IC50 [2] of 7.18 µM. The EC50 (CA46, CA46, Lymphoma) was 2.27 µM, the GI50 (CA46, CA46, Lymphoma) was 2.26 µM and the IC50 (CA46, CA46, Lymphoma) was 2.27 µM. It also gave an EC50 (CAKI-1, Caki-1, Kidney) of 2.86 µM, a GI50 (CAKI-1, Caki-1, Kidney) of 2.75 µM and an IC50 (CAKI-1, Caki-1, Kidney) of 2.86 µM. It also gave an EC50 (CAKI-2, Caki-2, Kidney) of 4.38 µM, a GI50 (CAKI-2, Caki-2, Kidney) of 4.35 µM and an IC50 (CAKI-2, Caki-2, Kidney) of 4.38 µM. It also gave an EC50 (CAL-27, Cal 27, Head and Neck) of 2.16 µM, a GI50 (CAL-27, Cal 27, Head and Neck) of 2.15 µM and an IC50 (CAL-27, Cal 27, Head and Neck) of 2.16 µM. It also gave an EC50 [3] of 1.69 µM, a GI50 [3] of 1.69 µM and an IC50 [3] of 1.69 µM. For the same compound, the EC50 (CAMA-1, CAMA-1, Breast) was 3.51 µM, the GI50 (CAMA-1, CAMA-1, Breast) was 3.4 µM and the IC50 (CAMA-1, CAMA-1, Breast) was 3.51 µM. The EC50 (CAPAN-1, Capan-1, Pancreas) was > 30 µM, the GI50 (CAPAN-1, Capan-1, Pancreas) was > 30 µM and the IC50 (CAPAN-1, Capan-1, Pancreas) was > 30 µM. The EC50 [4] was 5.79 µM, the GI50 [4] was 5.24 µM and the IC50 [4] was 6.6 µM. For the same compound, the EC50 (CCRF-CEM, CCRFCEM, Leukemia) was 4.73 µM, the GI50 (CCRF-CEM, CCRFCEM, Leukemia) was 4.71 µM and the IC50 (CCRF-CEM, CCRFCEM, Leukemia) was 4.73 µM. For the same compound, the EC50 (CEM/C1, CEM-C1, Leukemia) was 1.96 µM, the GI50 (CEM/C1, CEM-C1, Leukemia) was 1.95 µM and the IC50 (CEM/C1, CEM-C1, Leukemia) was 1.96 µM. It also gave an EC50 (CFPAC-1, CFPAC-1, Pancreas) of 3.65 µM, a GI50 (CFPAC-1, CFPAC-1, Pancreas) of 3.65 µM and an IC50 (CFPAC-1, CFPAC-1, Pancreas) of 3.66 µM. The EC50 [5] was 1.2 µM, the GI50 [5] was 1.2 µM and the IC50 [5] was 1.2 µM. It also gave an EC50 (CHL-1, CHL-1, Skin (Melanoma)) of 1.37 µM, a GI50 (CHL-1, CHL-1, Skin (Melanoma)) of 1.36 µM and an IC50 (CHL-1, CHL-1, Skin (Melanoma)) of 1.37 µM. The EC50 [6] was 1.43 µM, the GI50 [6] was 1.41 µM and the IC50 [6] was 1.43 µM. For the same compound, the EC50 (CML-T1, CML-T1, Leukemia) was 1.93 µM, the GI50 (CML-T1, CML-T1, Leukemia) was 1.93 µM and the IC50 (CML-T1, CML-T1, Leukemia) was 1.93 µM. The EC50 (COLO 201, Colo 201, Colon) was 0.92 µM, the GI50 (COLO 201, Colo 201, Colon) was 0.92 µM and the IC50 (COLO 201, Colo 201, Colon) was 0.92 µM. For the same compound, the EC50 (COLO 205, Colo 205, Colon) was 1.31 µM, the GI50 (COLO 205, Colo 205, Colon) was 1.31 µM and the IC50 (COLO 205, Colo 205, Colon) was 1.31 µM. For the same compound, the EC50 (COLO 320DM, Colon) was 3.2 µM, the GI50 (COLO 320DM, Colon) was 3.18 µM and the IC50 (COLO 320DM, Colon) was 3.2 µM. For the same compound, the EC50 [7] was 3.09 µM, the GI50 [7] was 3.13 µM and the IC50 [7] was 3.13 µM. The EC50 [8] was 0.68 µM, the GI50 [8] was 0.62 µM and the IC50 [8] was 0.68 µM. It also gave an EC50 (COR-L23, COR-L23, Lung - NSCLC) of 7.18 µM, a GI50 (COR-L23, COR-L23, Lung - NSCLC) of 7.14 µM and an IC50 (COR-L23, COR-L23, Lung - NSCLC) of 7.18 µM. For the same compound, the EC50 [9] was 1.44 µM, the GI50 [9] was 1.42 µM and the IC50 [9] was 1.45 µM. The EC50 (CRO-AP2, CRO-AP2, Lymphoma) was 5.72 µM, the GI50 (CRO-AP2, CRO-AP2, Lymphoma) was 5.66 µM and the IC50 (CRO-AP2, CRO-AP2, Lymphoma) was 5.72 µM. For the same compound, the EC50 [10] was 5.28 µM, the GI50 [10] was 5.24 µM and the IC50 [10] was 5.29 µM. For the same compound, the EC50 (Calu-1, Calu1, Lung - NSCLC) was 3.1 µM, the GI50 (Calu-1, Calu1, Lung - NSCLC) was 3.07 µM and the IC50 (Calu-1, Calu1, Lung - NSCLC) was 3.1 µM. It also gave an EC50 (Calu-6, Calu6, Lung - NSCLC) of 9.24 µM and a GI50 (Calu-6, Calu6, Lung - NSCLC) of 8.59 µM.
